Tests used:
Experiment in all cases: Glasshouse herbicide test, pre- and post-emergence
Assay type in all cases: in vivo
Lolium perenne (LOLPE) = conditions: 250 g/h, evaluated after 13 days, five-point scale; for percentage damage caused to the plant, LOLPE POST: post-emergence; for percentage damage caused to the plant, LOLPE PRE: pre-emergence
How it was run: (§1)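 Spraying at 250 g/h took place either pre-emergence (one day after sowing) or post-emergence (after eight days' cultivation). Percentage damage was evaluated 13 days afterwards and binned into five classes, 1=0-19% up to 5=80-100%.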

[1] = system: Echinochloa crus-galli (ECHCG); conditions: 250 g/h, evaluated after 13 days, five-point scale; for percentage damage caused to the plant, ECHCG POST: post-emergence; for percentage damage caused to the plant, ECHCG PRE: pre-emergence
How it was run: as §1

Avena fatua (AVEFA) = conditions: 250 g/h, evaluated after 13 days, five-point scale; for percentage damage caused to the plant, AVEFA POST: post-emergence; for percentage damage caused to the plant, AVEFA PRE: pre-emergence
How it was run: as §1

[2] = system: Alopecurus myosuroides (ALOMY); conditions: 250 g/h, evaluated after 13 days, five-point scale; for percentage damage caused to the plant, ALOMY POST: post-emergence; for percentage damage caused to the plant, ALOMY PRE: pre-emergence
How it was run: as §1

Setaria faberi (SETFA) = conditions: 250 g/h, evaluated after 13 days, five-point scale; for percentage damage caused to the plant, SETFA POST: post-emergence; for percentage damage caused to the plant, SETFA PRE: pre-emergence
How it was run: as §1

Structure (SMILES) | percentage damage caused to the plant, LOLPE POST (Lolium perenne (LOLPE)) | percentage damage caused to the plant, LOLPE PRE (Lolium perenne (LOLPE)) | percentage damage caused to the plant, ECHCG POST [1] | percentage damage caused to the plant, ECHCG PRE [1] | percentage damage caused to the plant, AVEFA POST (Avena fatua (AVEFA)) | percentage damage caused to the plant, AVEFA PRE (Avena fatua (AVEFA)) | percentage damage caused to the plant, ALOMY POST [2] | percentage damage caused to the plant, ALOMY PRE [2] | percentage damage caused to the plant, SETFA POST (Setaria faberi (SETFA)) | percentage damage caused to the plant, SETFA PRE (Setaria faberi (SETFA))
CNC(=O)C1CCC2(CC1)CC(=O)C(c1c(C)cc(-c3ccc(Cl)cn3)cc1C)C(=O)C2 (stereo not shown) [Compound 1.022] | 5 (5=80-100%) | 5 (5=80-100%) | 5 (5=80-100%) | 5 (5=80-100%) | 5 (5=80-100%) | 5 (5=80-100%) | 5 (5=80-100%) | 5 (5=80-100%) | 5 (5=80-100%) | 5 (5=80-100%)
CC#Cc1cc(C)c(C2C(=O)CC3(CCC(NC(=O)c4ccccc4)CC3)CC2=O)c(C)c1 (stereo not shown) [Compound 2.019] | 5 (5=80-100%) | 5 (5=80-100%) | 5 (5=80-100%) | 5 (5=80-100%) | 5 (5=80-100%) | 5 (5=80-100%) | 5 (5=80-100%) | 5 (5=80-100%) | 5 (5=80-100%) | 5 (5=80-100%)
CC#Cc1cc(C)c(C2C(=O)CC3(CCC(NC(C)=O)CC3)CC2=O)c(C)c1 (stereo not shown) [Compound 2.001, N-[3-(2,6-dimethyl-4-prop-1-ynyl-phenyl)-2,4-dioxo-spiro[5.5]undecan-9-yl]acetamide] | 5 (5=80-100%) | 5 (5=80-100%) | 5 (5=80-100%) | 5 (5=80-100%) | 5 (5=80-100%) | 5 (5=80-100%) | 5 (5=80-100%) | 5 (5=80-100%) | 5 (5=80-100%) | 5 (5=80-100%)
CC#Cc1cc(C)c(C2=C(OC(=O)OC)CC3(CCC(C(=O)NC)CC3)CC2=O)c(C)c1 (stereo not shown) [Compound P1.001] | 5 (5=80-100%) | 5 (5=80-100%) | 5 (5=80-100%) | 5 (5=80-100%) | 5 (5=80-100%) | 5 (5=80-100%) | 5 (5=80-100%) | 5 (5=80-100%) | 5 (5=80-100%) | 5 (5=80-100%)
CC#Cc1cc(C)c(C2C(=O)CC3(CCC(C(=O)NC(C)(C#N)CC)CC3)CC2=O)c(C)c1 (stereo not shown) [Compound 1.014] | 5 (5=80-100%) | 5 (5=80-100%) | 5 (5=80-100%) | 5 (5=80-100%) | 5 (5=80-100%) | 2 (2=20-39%) | 5 (5=80-100%) | 3 (3=40-59%) | 5 (5=80-100%) | 5 (5=80-100%)
CNC(=O)C1CCC2(CC1)CC(=O)C(c1c(C)cc(-c3ccc(F)cc3)cc1C)C(=O)C2 (stereo not shown) [Compound 1.025] | 5 (5=80-100%) | 5 (5=80-100%) | 5 (5=80-100%) | 5 (5=80-100%) | 5 (5=80-100%) | 5 (5=80-100%) | 5 (5=80-100%) | 5 (5=80-100%) | 5 (5=80-100%) | 5 (5=80-100%)
CC#Cc1cc(C)c(C2C(=O)CC3(CCC(C(=O)N4CCOCC4=O)CC3)CC2=O)c(C)c1 (stereo not shown) [Compound 1.005] | 5 (5=80-100%) | 5 (5=80-100%) | 5 (5=80-100%) | 5 (5=80-100%) | 5 (5=80-100%) | 4 (4=60-79%) | 4 (4=60-79%) | 3 (3=40-59%) | 5 (5=80-100%) | 5 (5=80-100%)
